Reference: ChEMBL document CHEMBL6177971, “Iterative Optimization Yields Stapled Peptides with Superior Pharmacokinetics and Potency for Renal Fibrosis Treatment” (J Med Chem, 2025)
Calls of active or inactive are those of the source. The calls are words filed in the database; no cut-off is given here.

Tests used:
[1] = tested on: NIH3T3; assay: Inhibition of TGF-beta1-induced EMT in mouse NIH3T3 cells assessed as decrease in alpha-SMA level at 10 uM incubated for 48 hrs by Western blot analysis; assay type: functional, cell-based
[2] = tested on: Mus musculus; assay: Anti-fibrotic activity in C57BL/6J mouse model of unilateral ureteral obstruction assessed as decrease in renal alpha-SMA […] level administered intraperitoneally every day for 7 days by IHC analysis; assay type: functional, organism-based; settings: dose 0.05-1.25 mg/kg, route ip, time 7.0 day
[3] = tested on: Mus musculus; assay: Anti-fibrotic activity in C57BL/6J mouse model of unilateral ureteral obstruction assessed as decrease in renal inflammation at 0.05 to 1.25 mg/kg, ip administered every day for 7 days by H and E staining based analysis; assay type: functional, organism-based; settings: dose 0.05-1.25 mg/kg, time 7.0 day
[4] = tested on: Mus musculus; assay: Anti-fibrotic activity in C57BL/6J mouse model of unilateral ureteral obstruction assessed as decrease in fibronectin level at 0.25 mg/kg, ip administered every day for 7 days by Western blot analysis; assay type: functional, organism-based; settings: time 7.0 day
[5] = tested on: NIH3T3; assay: Inhibition of myofibroblast activation in TGF-beta1-induced EMT in mouse NIH3T3 cells assessed as decrease in collagen I mRNA level at 1 to 2 uM incubated for 48 hrs by qPCR analysis; assay type: functional, cell-based; settings: dose 1-2 µM
[6] = Clearance in male C57BL/6J mouse at 2.8 mg/kg, iv measured for 3 to 240 mins by UHPLC-HRMS analysis; assay type: ADME, organism-based; settings: in vivo, time 3-240 min
[7] = biological target: Albumin (Bos taurus, UniProt P02769); assay: Binding affinity to bovine serum albumin assessed as dissociation constant by ITC analysis; assay type: ADME
[8] = tested on: NIH3T3; assay: Inhibition of myofibroblast activation in TGF-beta1-induced EMT in mouse NIH3T3 cells assessed as decrease in alpha-SMA level incubated for 48 hrs by Western blot analysis; assay type: functional, cell-based; settings: dose 1-10 µM
[9] = tested on: Mus musculus; assay: Anti-fibrotic activity in C57BL/6J mouse model of unilateral ureteral obstruction assessed as decrease in collagen I mRNA level at 0.25 mg/kg, ip administered every day for 7 days by qPCR analysis; assay type: functional, organism-based; settings: time 7.0 day
[10] = tested on: HK-2; assay: Inhibition of myofibroblast activation in TGF-beta1-induced EMT in human HK-2 cells assessed as decrease in fibronectin level at 1 to 10 uM incubated for 24 hrs by Western blot analysis; assay type: functional, cell-based; settings: dose 1-10 µM
[11] = tested on: NIH3T3; assay: Inhibition of myofibroblast activation in TGF-beta1-induced EMT in mouse NIH3T3 cells assessed as decrease in vimentin mRNA level at 1 to 2 uM incubated for 48 hrs by qPCR analysis; assay type: functional, cell-based; settings: dose 1-2 µM
[12] = tested on: Mus musculus; assay: Anti-fibrotic activity in C57BL/6J mouse model of unilateral ureteral obstruction assessed as decrease in alpha-SMA level at 0.25 mg/kg, ip administered every day for 7 days by Western blot analysis; assay type: functional, organism-based; settings: time 7.0 day
[13] = tested on: Mus musculus; assay: Anti-fibrotic activity in C57BL/6J mouse model of unilateral ureteral obstruction assessed as decrease in kidney inflammation at 0.05 to 1.25 mg/kg, ip administered every day for 7 days; assay type: functional, organism-based; settings: dose 0.05-1.25 mg/kg, time 7.0 day
[14] = tested on: NIH3T3; assay: Inhibition of myofibroblast activation in TGF-beta1-induced EMT in mouse NIH3T3 cells assessed as decrease in fibronectin mRNA level at 1 to 2 uM incubated for 48 hrs by qPCR analysis; assay type: functional, cell-based; settings: dose 1-2 µM
[15] = tested on: Mus musculus; assay: Anti-fibrotic activity in C57BL/6J mouse model of unilateral ureteral obstruction assessed as minimum effective dose administered intraperitoneally every day for 7 days; assay type: functional; settings: route ip; time 7 day
[16] = tested on: HK-2; assay: Inhibition of myofibroblast activation in TGF-beta1-induced EMT in human HK-2 cells assessed as decrease in COL1A1 mRNA level at 1 to 5 uM incubated for 24 hrs by qPCR analysis; assay type: functional, cell-based; settings: dose 1-5 µM
[17] = tested on: NIH3T3; assay: Inhibition of myofibroblast activation in TGF-beta1-induced EMT in mouse NIH3T3 cells assessed as decrease in TGF-beta1 mRNA level at 1 to 2 uM incubated for 48 hrs by qPCR analysis; assay type: functional, cell-based; settings: dose 1-2 µM
[18] = tested on: HK-2; assay: Inhibition of myofibroblast activation in TGF-beta1-induced EMT in human HK-2 cells assessed as decrease in MMP-2 level at 1 to 5 uM incubated for 24 hrs by Western blot analysis; assay type: functional, cell-based; settings: dose 1-5 µM
[19] = tested on: NIH3T3; assay: Inhibition of myofibroblast activation in TGF-beta1-induced EMT in mouse NIH3T3 cells assessed as decrease in MMP2 mRNA level at 1 to 2 uM incubated for 48 hrs by qPCR analysis; assay type: functional, cell-based; settings: dose 1-2 µM
[20] = tested on: NIH3T3; assay: Cytotoxicity against mouse NIH3T3 cells assessed as inhibition of cell viability at 10 to 40 uM incubated for 48 hrs by CCK8 assay; assay type: toxicity, cell-based; settings: nih3t3, 48 h, dose 10-40 µM
[21] = tested on: Mus musculus; assay: Anti-fibrotic activity in C57BL/6J mouse model of unilateral ureteral obstruction assessed as decrease in renal fibronectin […] level administered intraperitoneally every day for 7 days by IHC analysis; assay type: functional, organism-based; settings: dose 0.05-1.25 mg/kg, route ip, time 7.0 day
[22] = tested on: NIH3T3; assay: Inhibition of myofibroblast activation in TGF-beta1-induced EMT in mouse NIH3T3 cells assessed as decrease in collagen I level at 1 to 2 uM incubated for 48 hrs by Western blot analysis; assay type: functional, cell-based; settings: dose 1-2 µM
[23] = Stability in C57BL/6J mouse serum assessed as proteolysis resistance measured up to 72 hrs by HPLC analysis; assay type: ADME, cell-free
[24] = tested on: Mus musculus; assay: Anti-fibrotic activity in C57BL/6J mouse model of unilateral ureteral obstruction assessed as decrease in TGF-beta1 mRNA level at 0.25 mg/kg, ip administered every day for 7 days by qPCR analysis; assay type: functional, organism-based; settings: time 7.0 day
[25] = tested on: NIH3T3; assay: Inhibition of myofibroblast activation in TGF-beta1-induced EMT in mouse NIH3T3 cells assessed as decrease in vimentin level at 1 to 2 uM incubated for 48 hrs by Western blot analysis; assay type: functional, cell-based; settings: dose 1-2 µM
[26] = MRT in male C57BL/6J mouse at 2.8 mg/kg, iv measured for 3 to 240 mins by UHPLC-HRMS analysis; assay type: ADME, organism-based; settings: in vivo, time 3-240 min
[27] = tested on: NIH3T3; assay: Inhibition of myofibroblast activation in TGF-beta1-induced EMT in mouse NIH3T3 cells assessed as decrease in fibronectin level incubated for 48 hrs by Western blot analysis; assay type: functional, cell-based; settings: dose 1-10 µM
[28] = tested on: HK-2; assay: Inhibition of myofibroblast activation in TGF-beta1-induced EMT in human HK-2 cells assessed as decrease in FN-1 mRNA level at 1 to 5 uM incubated for 24 hrs by qPCR analysis; assay type: functional, cell-based; settings: dose 1-5 µM
[29] = tested on: HK-2; assay: Inhibition of myofibroblast activation in TGF-beta1-induced EMT in human HK-2 cells assessed as decrease in MMP2 mRNA level at 1 to 5 uM incubated for 24 hrs by qPCR analysis; assay type: functional, cell-based; settings: dose 1-5 µM
[30] = tested on: Mus musculus; assay: Anti-fibrotic activity in C57BL/6J mouse model of unilateral ureteral obstruction assessed as decrease in MMP2 mRNA level at 0.25 mg/kg, ip administered every day for 7 days by qPCR analysis; assay type: functional, organism-based; settings: time 7.0 day
[31] = tested on: Mus musculus; assay: Anti-fibrotic activity in C57BL/6J mouse model of unilateral ureteral obstruction assessed as decrease in collagen I level at 0.25 mg/kg, ip administered every day for 7 days by Western blot analysis; assay type: functional, organism-based; settings: time 7.0 day
[32] = AUC (0 to infinity) in male C57BL/6J mouse at 2.8 mg/kg, iv measured for 3 to 240 mins by UHPLC-HRMS analysis; assay type: ADME, organism-based; settings: in vivo, time 3-240 min

Sequence of Albumin (P02769 whole entry): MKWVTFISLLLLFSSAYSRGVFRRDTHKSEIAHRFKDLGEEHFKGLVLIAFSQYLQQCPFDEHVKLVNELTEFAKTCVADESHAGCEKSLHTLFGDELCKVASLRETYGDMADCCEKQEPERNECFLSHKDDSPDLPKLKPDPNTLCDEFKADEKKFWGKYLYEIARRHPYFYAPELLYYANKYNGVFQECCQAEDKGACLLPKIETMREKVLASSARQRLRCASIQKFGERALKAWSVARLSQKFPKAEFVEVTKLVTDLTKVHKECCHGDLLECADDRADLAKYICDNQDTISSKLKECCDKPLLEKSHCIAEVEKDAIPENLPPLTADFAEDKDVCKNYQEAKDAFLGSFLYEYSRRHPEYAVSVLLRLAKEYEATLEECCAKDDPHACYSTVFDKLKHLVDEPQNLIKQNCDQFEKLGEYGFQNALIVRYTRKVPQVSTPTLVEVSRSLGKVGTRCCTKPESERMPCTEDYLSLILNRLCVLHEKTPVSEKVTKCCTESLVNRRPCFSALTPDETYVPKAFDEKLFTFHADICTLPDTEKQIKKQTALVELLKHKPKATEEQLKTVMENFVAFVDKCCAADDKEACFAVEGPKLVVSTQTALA

Structure (SMILES): CCCCCCCCCCCC(=O)N[C@H](CC(=O)O)C(=O)N[C@@H](Cc1c[nH]cn1)C(=O)N[C@@H](CC(N)=O)C(=O)N[C@H]1CSCCCCCCSC[C@@H](C(N)=O)NC(=O)[C@@H](C)NC(=O)[C@H](CCC(N)=O)NC(=O)[C@@H]2CCCN2C1=O
- inhibition [1]: Active
- Activity [2]: Dose-dependent-effect
- Activity [3]: Active
- Activity [4]: Active
- inhibition [5]: Active
- clearance [6]: 0.467 mL/min
- Kd [7]: 10.6 µM
- inhibition [8]: Active; No Further Enhancement In Antifibrotic Activity Was Observed At Concentrations Above 2 Î¼M
- Activity [9]: Active
- inhibition [10]: Active; No Additional Suppression Observed At Concentrations Above 5 Î¼M
- inhibition [11]: Active
- Activity [12]: Active
- Activity [13]: Active
- inhibition [14]: Active
- MEC [15]: 0.05 mg/kg
- inhibition [16]: Active
- inhibition [17]: Active
- inhibition [18]: Active
- inhibition [19]: Active
- Activity [20]: Non-toxic
- Activity [21]: Dose-dependent-effect
- inhibition [22]: Active
- Stability [23]: Stable
- Activity [24]: Active
- inhibition [25]: Active
- MRT [26]: 20.2 min
- inhibition [27]: Active; No Further Enhancement In Antifibrotic Activity Was Observed At Concentrations Above 2 Î¼M
- inhibition [28]: Active
- inhibition [29]: Active
- Activity [30]: Active
- Activity [31]: Active
- AUC(0-inf) [32]: 1.94 µg·h/mL
